Results published in patent US6500842B1, “8-hydroxy-7-substituted quinolines as anti-viral agents” (Pharmacia & Upjohn Company, priority 1996, dated 2002).
Where “and” joins values, the source holds several entries; their conditions need not be identical. Equal entries are not always repeated.

target: T1, HCMV polymerase (Human cytomegalovirus, UniProt P08546); test: HCMV polymerase assay (scintillation proximity assay); assay type: biochemical; conditions: Conc 1.00e−004 M; Table 2
T1 construct: made in house; host or cells: recombinant baculovirus-infected SF-9 cells
Method: The HCMV polymerase assay is performed using a scintillation proximity assay (SPA) as described in several references, such as N. D. Cook, et al., Pharmaceutical Manufacturing International, pages 49-53 (1992); K. Takeuchi, Laboratory Practice, September issue (1992); U.S. Pat. No. 4,568,649 (1986); which are incorporated by reference herein. Reactions are performed in 96-well plates. The assay is conducted in 100 μl volume with 5.4 mM HEPES (pH 7.5), 11.7 mM KCl, 4.5 mM MgCl2, 0.36 mg/ml BSA, and 90 nM ^3H-dTTP. Assays are run with and without CHAPS, (3-[(3-Cholamidopropyl)-dimethylammonio]-1-propane-sulfonate) at a final concentration of 2 mM. HCMV is diluted in enzyme dilution buffer containing 50% glycerol, 250 mM NaCl, 10 mM HEPES (pH 7.5), 100 pg/ml BSA, and 0.01% sodium azide. The HCMV polymerase, which is expressed in recombinant baculovirus-infected SF-9 cells and purified according to literature procedures, is added at 10% (or 10 μl) of the final reaction volume, i.e., 100 μl. Compounds are diluted in 50% DMSO and 10 μl are added to each well. Control wells contain an equivalent concentration of DMSO. Unless noted otherwise, reactions are initiated via the addition of 6 nM biotinylated poly(dA)-oligo(dT) template/primer to reaction mixtures containing the enzyme, substrate, and compounds of interest. Plates are incubated in a 25° C. of 37° C. H2O bath and terminated via the addition of 40 μl/reaction of 0.5 M EDTA (pH 8) per well. Reactions are terminated within the time-frame during which substrate incorporation is linear and varied depending upon the enzyme and conditions used, i.e., 30 min. for HCMV polymerase. Ten μl of streptavidin-SPA beads (20 mg/ml in PBS/10% glycerol) are added following termination of the reaction. Plates are incubated 10 min. at 37° C., then equilibrated to room temperature, and counted on a Packard Topcount. Linear regressions are performed and IC50's are calculated using computer software. Results of the testing of compounds of the present invention in this assay are shown in Tables 1, 2, 5, 9, 10, 11, 13 (except for the last compound which was tested under modified conditions) and 14 below.

T1 sequence (P08546 whole entry): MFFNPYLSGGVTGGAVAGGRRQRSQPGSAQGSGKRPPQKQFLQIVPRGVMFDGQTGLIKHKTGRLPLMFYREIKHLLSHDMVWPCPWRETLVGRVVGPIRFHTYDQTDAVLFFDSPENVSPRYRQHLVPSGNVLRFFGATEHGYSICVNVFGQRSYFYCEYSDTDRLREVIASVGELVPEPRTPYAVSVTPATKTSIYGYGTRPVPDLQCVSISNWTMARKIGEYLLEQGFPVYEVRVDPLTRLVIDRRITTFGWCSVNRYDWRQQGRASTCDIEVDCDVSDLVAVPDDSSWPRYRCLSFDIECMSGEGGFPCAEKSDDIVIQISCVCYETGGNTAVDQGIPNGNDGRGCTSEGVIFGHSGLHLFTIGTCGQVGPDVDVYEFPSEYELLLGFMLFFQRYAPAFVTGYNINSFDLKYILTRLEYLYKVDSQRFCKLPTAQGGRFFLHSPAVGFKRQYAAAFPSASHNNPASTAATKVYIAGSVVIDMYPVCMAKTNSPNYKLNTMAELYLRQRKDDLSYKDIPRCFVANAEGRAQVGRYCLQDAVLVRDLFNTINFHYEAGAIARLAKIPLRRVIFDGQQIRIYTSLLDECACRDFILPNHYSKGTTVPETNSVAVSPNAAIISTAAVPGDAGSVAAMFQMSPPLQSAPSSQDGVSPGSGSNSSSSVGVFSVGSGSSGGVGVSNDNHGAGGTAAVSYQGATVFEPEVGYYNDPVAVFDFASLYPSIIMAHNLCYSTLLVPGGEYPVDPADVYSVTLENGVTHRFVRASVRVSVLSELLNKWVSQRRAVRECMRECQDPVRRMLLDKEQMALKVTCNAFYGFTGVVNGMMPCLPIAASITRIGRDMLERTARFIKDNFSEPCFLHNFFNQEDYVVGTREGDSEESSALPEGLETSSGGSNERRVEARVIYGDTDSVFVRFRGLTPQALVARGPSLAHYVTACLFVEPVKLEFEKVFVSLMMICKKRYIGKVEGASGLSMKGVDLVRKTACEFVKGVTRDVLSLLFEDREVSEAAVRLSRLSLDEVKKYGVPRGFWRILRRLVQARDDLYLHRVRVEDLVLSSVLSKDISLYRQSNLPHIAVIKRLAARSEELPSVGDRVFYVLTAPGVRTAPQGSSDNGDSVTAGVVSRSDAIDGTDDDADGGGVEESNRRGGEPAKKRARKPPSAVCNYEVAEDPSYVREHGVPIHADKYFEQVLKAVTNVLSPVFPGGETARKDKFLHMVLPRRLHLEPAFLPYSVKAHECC

Compound | % Inhib
O=S(=O)(NCc1ccccc1)c1cc(Cl)c2cccnc2c1O [Example 22, 5-Chloro-8-hydrxoy-N-(phenylmehtyl)-7-quinolinesulfonamide] | 98.2% and 99.7%

same assay, conditions: Conc 1.30e−005 M; Table 2

Compound | % Inhib
O=S(=O)(NCc1ccccc1)c1cc(Cl)c2cccnc2c1O [Example 22, 5-Chloro-8-hydrxoy-N-(phenylmehtyl)-7-quinolinesulfonamide] | 68.9% and 78.3%

same assay, conditions: Conc 2.50e−005 M; Table 2

Compound | % Inhib
O=S(=O)(NCc1ccccc1)c1cc(Cl)c2cccnc2c1O [Example 22, 5-Chloro-8-hydrxoy-N-(phenylmehtyl)-7-quinolinesulfonamide] | 90.7% and 95.2%

same assay, conditions: Conc 5.00e−005 M; Table 2

Compound | % Inhib
O=S(=O)(NCc1ccccc1)c1cc(Cl)c2cccnc2c1O [Example 22, 5-Chloro-8-hydrxoy-N-(phenylmehtyl)-7-quinolinesulfonamide] | 96.7% and 98.6%

same assay, conditions: Conc 6.25e−006 M; Table 2

Compound | % Inhib
O=S(=O)(NCc1ccccc1)c1cc(Cl)c2cccnc2c1O [Example 22, 5-Chloro-8-hydrxoy-N-(phenylmehtyl)-7-quinolinesulfonamide] | 33.3% and 51.5%

same assay, conditions: Table 10; CMV pol Assay; read-out: IC50

Compound | IC50 [µM]
COc1ccc(NC(=O)c2ccc3cccnc3c2O)cc1 | 30.1
O=C(Nc1cccc(Cl)c1)c1ccc2cccnc2c1O | 1.7
O=C(Nc1cccc(F)c1)c1ccc2cccnc2c1O | 16.9
O=C(Nc1ccc(F)c(F)c1)c1ccc2cccnc2c1O | 82.9
O=C(Nc1cc(F)cc(F)c1)c1ccc2cccnc2c1O | 26.3
O=C(Nc1ccc([N+](=O)[O-])cc1)c1ccc2cccnc2c1O | 48.4
O=C(Nc1ccc2ccccc2c1)c1ccc2cccnc2c1O | 15.5
O=C(Nc1ccc(S(=O)(=O)Nc2ccc3cn[nH]c3c2)cc1)c1ccc2cccnc2c1O | 2.4
O=C(Nc1cccc(Br)c1)c1ccc2cccnc2c1O | 9.2
O=C(Nc1ccc(Cl)c(Cl)c1)c1ccc2cccnc2c1O | 32.7
O=C(Nc1cccc(I)c1)c1ccc2cccnc2c1O | 5.9
O=C(Nc1cccc(OCc2ccccc2)c1)c1ccc2cccnc2c1O | 2.9
CSc1cccc(NC(=O)c2ccc3cccnc3c2O)c1 | 25.5
Cc1cc(C)cc(NC(=O)c2ccc3cccnc3c2O)c1 | 19.2
O=C(Nc1ccc(Br)cc1)c1ccc2cccnc2c1O | 29.7
O=C(Nc1ccc(Oc2ccccc2)cc1)c1ccc2cccnc2c1O | 6.9
O=C(Nc1cc(Cl)c(O)c(Cl)c1)c1ccc2cccnc2c1O | 30.5
O=C(Nc1ccc(Sc2ccc([N+](=O)[O-])cc2)cc1)c1ccc2cccnc2c1O | > 100
O=C(Nc1ccc(OCc2ccccc2)cc1)c1ccc2cccnc2c1O | 4.1
O=C(Nc1ccc(Oc2ccc([N+](=O)[O-])cc2)cc1)c1ccc2cccnc2c1O | 3.9
O=C(Nc1cccc2ccccc12)c1ccc2cccnc2c1O | 4.9
O=C(Nc1ccccc1-n1cccc1)c1ccc2cccnc2c1O | 27.9
O=C(Nc1ccc2[nH]ccc2c1)c1ccc2cccnc2c1O | 13.6
O=C(Nc1cccc2cccnc12)c1ccc2cccnc2c1O | 10.3
COc1ccc(NC(=O)c2ccc3cccnc3c2O)c([N+](=O)[O-])c1 | 22.4
O=C(Nc1cc([N+](=O)[O-])cc([N+](=O)[O-])c1)c1ccc2cccnc2c1O | 7.1
N#Cc1ccccc1NC(=O)c1ccc2cccnc2c1O | > 50
O=C(Nc1ccc2cccc(O)c2n1)c1ccc2cccnc2c1O | 14.5

same assay, conditions: Table 11; read-out: CMV pol Assay IC50

Compound | IC50 [µM]
O=C(Nc1nnc(NCCc2ccccc2)s1)c1ccc2cccnc2c1O | 2.4
CCCCNc1nnc(NC(=O)c2ccc3cccnc3c2O)s1 | 2.5
CC(C)(C)OC(=O)NCCNc1nnc(NC(=O)c2ccc3cccnc3c2O)s1 | 14.3
N#CC(Nc1nnc(NC(=O)c2ccc3cccnc3c2O)s1)c1ccc2c(c1)OCO2 (stereo not shown) | 3.1
COC(=O)[C@H](Cc1ccccc1)Nc1nnc(NC(=O)c2ccc3cccnc3c2O)s1 | 15.4
COC(=O)[C@@H](Cc1ccccc1)Nc1nnc(NC(=O)c2ccc3cccnc3c2O)s1 | 9.4
CC(C)(C)OC(=O)C(Nc1nnc(NC(=O)c2ccc3cccnc3c2O)s1)c1ccc2c(c1)OCO2 (stereo not shown) | 4.3
CC(C)(C)OC(=O)C(Nc1nnc(NC(=O)c2ccc3cccnc3c2O)s1)c1cccc2c1OCO2 (stereo not shown) | 4.7
O=C(Nc1nnc(NCc2ccc3c(c2)OCO3)s1)c1ccc2cccnc2c1O | 7.1
CC(C)(C)OC(=O)[C@H](Cc1ccc(O)cc1)Nc1nnc(NC(=O)c2ccc3cccnc3c2O)s1 | < 3.1
CC(C)(C)OC(=O)[C@H](CCCCNC(=O)OCc1ccccc1)Nc1nnc(NC(=O)c2ccc3cccnc3c2O)s1 | < 3.1
CC(C)C[C@H](Nc1nnc(NC(=O)c2ccc3cccnc3c2O)s1)C(=O)OC(C)(C)C | 11.4
CC(C)(C)OC(=O)[C@@H]1CCCN1c1nnc(NC(=O)c2ccc3cccnc3c2O)s1 | 13.9
CSCC[C@H](Nc1nnc(NC(=O)c2ccc3cccnc3c2O)s1)C(=O)OC(C)(C)C | 26.6
CC(C)(C)OC(=O)[C@H](Cc1c[nH]c2ccccc12)Nc1nnc(NC(=O)c2ccc3cccnc3c2O)s1 | < 3.1
CC(C)(C)OC(=O)[C@H](Cc1ccc(OC(C)(C)C)cc1)Nc1nnc(NC(=O)c2ccc3cccnc3c2O)s1 | 4.5
CC(C)(C)OC(=O)C[C@H](Nc1nnc(NC(=O)c2ccc3cccnc3c2O)s1)C(=O)OC(C)(C)C | 24.2
O=C(Nc1nnc(NC(C(=O)O)c2ccc3c(c2)OCO3)s1)c1ccc2cccnc2c1O (stereo not shown) | 22.6
O=C(Nc1nnc(NC(C(=O)O)c2cccc3c2OCO3)s1)c1ccc2cccnc2c1O (stereo not shown) | 18.9
O=C(Nc1nnc(N[C@@H](Cc2c[nH]c3ccccc23)C(=O)O)s1)c1ccc2cccnc2c1O | 8.5

same assay, conditions: Table 13; 100 μM

Compound | inhibition at 100 µM [%]
Cc1cc(C(F)(F)F)nc2c(O)c(C(=O)NCc3ccc(Cl)cc3)ccc12 | 35

same assay, conditions: Table 13; read-out: IC50

Compound | IC50 [µM]
Cc1ccc2ccc(C(=O)Nc3ccc(Cl)cc3)c(O)c2n1 | 7.6
O=C(NCc1ccc(Cl)cc1)c1cc([N+](=O)[O-])c2cccnc2c1O | 2.6
O=C(NC1=NC(=O)C(c2cccc([N+](=O)[O-])c2)S1)c1ccc2cccnc2c1O (stereo not shown) | 5.2
O=C(NC1=NC(=O)C(Cc2ccc(Cl)cc2)S1)c1ccc2cccnc2c1O (stereo not shown) | 1.7
O=C(NCCSc1ccccc1)c1ccc2ccc(C(F)(F)F)nc2c1O | 41.6
Cc1cc(O)c2ccc(C(=O)NCc3ccc(Cl)cc3)c(O)c2n1 | 102

same assay, conditions: Table 14; 25 uM

Compound | inhibition at 25 µM [%]
O=C(N[C@H]1CC[C@H](O)CC1)c1ccc2cccnc2c1O | 21
O=C(N[C@H](CO)Cc1ccccc1)c1ccc2cccnc2c1O | 93
O=C(NC(CO)c1ccccc1)c1ccc2cccnc2c1O (stereo not shown) | 39
O=C(NCCc1ccccc1F)c1ccc2cccnc2c1O | 39
O=C(NCCc1ccc(F)cc1)c1ccc2cccnc2c1O | 42

same assay, conditions: Table 14; read-out: IC50

Compound | IC50 [µM]
O=C(c1ccc2cccnc2c1O)N1CCN(c2ccc(Cl)c(Cl)c2)CC1 | 14
O=C(NCc1ccc2c(c1)OCO2)c1ccc2cccnc2c1O | 26
CCCCCCNC(=O)c1ccc2cccnc2c1O | 27
O=C(NCCNc1ccc([N+](=O)[O-])cn1)c1ccc2cccnc2c1O | 42
O=C(NCCOc1ccccc1)c1ccc2cccnc2c1O | 29
C[C@H](NC(=O)c1ccc2cccnc2c1O)[C@H](O)c1ccccc1 | 41
CCOC(=O)C(Cc1ccccc1)NC(=O)c1ccc2cccnc2c1O (stereo not shown) | 41
N#CC(NC(=O)c1ccc2cccnc2c1O)c1ccccc1 (stereo not shown) | 54
CC(C)C[C@H](NC(=O)c1ccc2cccnc2c1O)C(=O)OC(C)(C)C | 51
O=C(NC(CO)C(O)c1ccccc1)c1ccc2cccnc2c1O (stereo not shown) | 14
CC[C@H](C)C(CO)NC(=O)c1ccc2cccnc2c1O (stereo partly shown) | 26
O=C(NCc1cccs1)c1ccc2cccnc2c1O | 34
O=C(N[C@@H](CO)c1ccccc1)c1ccc2cccnc2c1O | 19
O=C(NCCc1ccccc1Cl)c1ccc2cccnc2c1O | 26
O=C(NCc1ccc(F)c(F)c1)c1ccc2cccnc2c1O | 42
O=C(NCc1c(F)cccc1Cl)c1ccc2cccnc2c1O | 30
O=C(NCc1ccc(F)cc1Cl)c1ccc2cccnc2c1O | 28
O=C(NCc1cc(Cl)cc(Cl)c1)c1ccc2cccnc2c1O | 27
O=C(N[C@H]1CC[C@H](OC(=O)c2ccc3cccnc3c2O)CC1)c1ccc2cccnc2c1O | 4

same assay, conditions: pol type CMV; Table 1; read-out: CMV pol Assay IC50

Compound | IC50 [µM]
O=C(NCc1ccc(Cl)cc1)c1ccc2cccnc2c1O [Example 1, N-[(4-Chlorophenyl)methyl]-8-hydroxy-7-quinolinecarboxamide] | 10.2
O=C(NC1=NC(=O)C(c2ccc(Cl)cc2)S1)c1cc(Br)c2cccnc2c1O (stereo not shown) [Example 6, 5-Bromo-N-[5-(4-chlorophenyl)-4,5-dihydro-4-oxo-2-thiazolyl]-8-hydroxy-7-quinolinecarboxamide] | 4.1
O=C(Nc1nnc(-c2ccc(Cl)cc2)s1)c1ccc2cccnc2c1O [Example 14, N-[5-(4-Chlorophenyl)-1,3,4-thiadiazol-2-yl]-8-hydroxy-7-quinolinecarboxamide] | 23.4

same assay, conditions: pol type CMV; Table 2; read-out: IC50

Compound | IC50
O=S(=O)(NCc1ccccc1)c1cc(Cl)c2cccnc2c1O [Example 22, 5-Chloro-8-hydrxoy-N-(phenylmehtyl)-7-quinolinesulfonamide] | 8.6 µM and 4.5 µM
